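Compound exposure: 48 hours, 5 concentrations, 96-well plates. GI50 = concentration required for 50% inhibition of growth.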 Active and inactive are the calls of the source. No stated cut-off is given here; in the data, active = GI50 up to about 1.1 µM and inactive = higher.
Key:
Experiment in all cases: NCI-60 cell line screen, 48 h
[1] = tested on: MCF7
[2] = tested on: ACHN
[3] = tested on: DU-145
[4] = tested on: COLO 205
[5] = tested on: SK-MEL-28
[6] = tested on: PC-3
[7] = tested on: MDA-N
[8] = tested on: SW-620
[9] = tested on: KM12
[10] = tested on: NCI-H522
[11] = tested on: Malme-3M
[12] = tested on: CAKI-1
[13] = tested on: HOP-62
[14] = tested on: BT-549
[15] = tested on: MDA-MB-435
[16] = tested on: UACC-62
[17] = tested on: OVCAR-8
[18] = tested on: MDA-MB-231
[19] = tested on: SK-MEL-2
[20] = tested on: UACC-257

Compound | GI50 [1] | GI50 [2] | GI50 [3] | GI50 [4] | GI50 [5] | GI50 [6] | GI50 [7] | GI50 [8] | GI50 [9] | GI50 [10] | GI50 [11] | GI50 [12] | GI50 [13] | GI50 [14] | GI50 [15] | GI50 [16] | GI50 [17] | GI50 [18] | GI50 [19] | GI50 [20]
Cc1ccc2c(O)cc(-c3ccccc3)nc2n1 | 0.0509 µM (active) | 0.845 µM (active) | 0.274 µM (active) | 0.0378 µM (active) | 0.181 µM (active) | 0.0519 µM (active) | 0.0106 µM (active) | 0.0389 µM (active) | 0.0304 µM (active) | 0.0532 µM (active) | 0.0867 µM (active) | 0.0564 µM (active) | 0.366 µM (active) | 0.122 µM (active) | < 0.01 µM (active) | 0.0521 µM (active) | 0.217 µM (active) | 0.467 µM (active) | 0.103 µM (active) | 0.285 µM (active)
CN(C(=O)Cc1cc(Cl)c(Cl)cc1NC(=O)CCCN)[C@H]1CCCC[C@@H]1N1CCCC1 | 20.1 µM (inactive) | > 100 µM (inactive) | > 100 µM (inactive) | 17.9 µM (inactive) | 17.1 µM (inactive) | 40.3 µM (inactive) | 16.7 µM (inactive) | 28.6 µM (inactive) | 18.7 µM (inactive) | 15.8 µM (inactive) | 17.1 µM (inactive) | > 100 µM (inactive) | > 100 µM (inactive) | 71.9 µM (inactive) | 16.4 µM (inactive) | 19.8 µM (inactive) | > 100 µM (inactive) | 28.3 µM (inactive) | 21.9 µM (inactive) | 19.1 µM (inactive)
Cc1ccc([N+](=O)[O-])cc1S(=O)(=O)Nc1ccc(C(=O)/C=C/c2ccccc2)cc1 | 10.1 µM (inactive) | 13.2 µM (inactive) | 15.8 µM (inactive) | 20.6 µM (inactive) | 23.4 µM (inactive) | 15.6 µM (inactive) | 20.2 µM (inactive) | 24.7 µM (inactive) | 16.7 µM (inactive) | 20.2 µM (inactive) | 18.5 µM (inactive) | 22.2 µM (inactive) | 17.7 µM (inactive) | 17.7 µM (inactive) | 19.6 µM (inactive) | 13.2 µM (inactive) | 23.2 µM (inactive) | 16.9 µM (inactive) | 19.1 µM (inactive) | 17.3 µM (inactive)
